The values that follow come from PubChem BioAssay AID1996.

In brackets after ≈: the same amount, converted by molar mass.

The conditions of this data set: buffer; pH 7.4; 200.0 µM.
Take `O=C(NNC1=NS(=O)(=O)c2ccccc21)c1ccccc1`: the solubility (kinetic) (usually solubility judged after dilution from a stock solution rather than from solid) was greater than 45.2 µg/mL.
The value for `[O-]/[N+](=C\c1ccco1)c1ccc(Cl)cc1` was 32.5 µg/mL (≈ 147 µM).
In turn, `CCOc1ccc(-n2c(C)c(C(=O)OC)c3cc(O)ccc32)cc1` had a kinetic solubility of less than 0.7 µg/mL.
As to `Cc1cc(NC(=O)CS(=O)(=O)c2ccc(Cl)cc2)no1`, the kinetic solubility came to 14.4 µg/mL (≈ 45.8 µM).
`COc1ccc(C)cc1Nc1ccc(C(=O)O)cc1[N+](=O)[O-]` showed a solubility (kinetic) of 44.3 µg/mL (≈ 147 µM).
The value for `CN1C(=O)CCC(CCC(=O)O)(c2ccccc2O)C1=O` (centres undefined) was greater than 43.7 µg/mL.
With `Cc1cc(C)cc(CC2CC(=O)N(c3cc(C)ccc3C)C2=O)c1` (centres undefined) the figure was 17.5 µg/mL (≈ 54.4 µM); with `COc1ccc(OCCCCn2c(CO)nc3ccccc32)cc1`, 45.4 µg/mL (≈ 139 µM).
`O=[N+]([O-])c1ccc(N2CCN(c3ccccc3F)CC2)nc1` gave a kinetic solubility of 0.7 µg/mL (≈ 2.32 µM).
The value for `CCOC(=O)CN1C(=O)C(=O)N(Cc2c(F)cccc2Cl)C1=O` was 45.6 µg/mL (≈ 133 µM).
Compound `O=C(Cc1cccc2ccccc12)Nc1ccc(O)cc1C(=O)O` came in with a solubility (kinetic) greater than 48.2 µg/mL.
Turning to `CCC(=O)Nc1nc(-c2ccccc2)nc(SC)c1C(C)=O`, the kinetic solubility worked out at 0.4 µg/mL (≈ 1.27 µM).
With `CC1CN(CC(=O)Nc2ccc(S(N)(=O)=O)cc2)CC(C)O1` (centres undefined) the figure was greater than 49.1 µg/mL; with `COC(=O)c1ccccc1NC(=O)c1cc(C)no1`, 1.1 µg/mL (≈ 4.23 µM); with `CCOc1cc(C=O)ccc1OCc1cc(=O)n2cc(C)ccc2n1`, 4.4 µg/mL (≈ 13 µM).
Compound `CCOc1cccc(NC(=O)c2cnccc2C(F)(F)F)c1` gave a kinetic solubility of 43.2 µg/mL (≈ 139 µM).
The value for `Cc1ccccc1-c1nc(C(=O)NCC2CCCO2)cc2c1[nH]c1ccccc12` (centres undefined) was 3.2 µg/mL (≈ 8.3 µM).
The value for `O=[N+]([O-])c1ccc2oc(C(O)c3cccc(Cl)c3)cc2c1` (centres undefined) was 19.4 µg/mL (≈ 63.9 µM).
The value for `CCCCCCOc1ccc(C(CC(=O)NC)C(=O)O)cc1` (centres undefined) was greater than 46.1 µg/mL; that for `COc1ccccc1NC(=O)c1ccccc1C(=O)N(C)Cc1ccccc1` was 1.3 µg/mL (≈ 3.47 µM); that for `CC1CCN(C(=S)NC(=O)c2ccco2)CC1` was greater than 37.8 µg/mL.
Regarding `CCN(Cc1cc(=O)[nH]c2ccccc12)C(=O)C(C)C`, the solubility (kinetic) was greater than 40.9 µg/mL.
In turn, `O=S(=O)(c1ccccc1)N(Cc1ccccn1)Cc1ccccn1` showed a solubility (kinetic) greater than 50.9 µg/mL.
`S=C(NCCc1ccccc1)Nc1c(Cl)cccc1Cl` came in with a solubility (kinetic) of 44.3 µg/mL (≈ 136 µM).
The value for `C=CCc1cccc(CNc2ccc(Br)cc2)c1O` was 1.4 µg/mL (≈ 4.4 µM); that for `O=C(Nc1cccc2cccnc12)c1ccc(Cl)cc1` was less than 0.3 µg/mL; that for `COc1cccc(NC(=O)C2COc3ccccc3O2)c1` (centres undefined) was greater than 42.8 µg/mL.
With `CN1N=C(C(=O)Nc2ccc3c(c2)CCC3)CCC1=O` the figure was greater than 40.7 µg/mL; with `O=C(COC(=O)c1cccc(F)c1)NC(=O)NCc1ccccc1`, 2.4 µg/mL (≈ 7.27 µM); with `CCOC(=O)c1c(C)[nH]c(C(=O)NCc2ccccn2)c1C`, 15.5 µg/mL (≈ 51.4 µM).
Compound `O=C(COC(=O)COc1cccc(Br)c1)NCc1ccc2c(c1)OCO2` yielded a solubility (kinetic) of 32.6 µg/mL (≈ 77.2 µM).
The value for `N#CCCN(C(=O)COC(=O)/C=C/c1cccs1)c1ccccc1` was 9.9 µg/mL (≈ 29.1 µM); that for `CC(=O)N1CCN(C(=O)CNC(=O)c2ccc(C)s2)CC1` was greater than 46.4 µg/mL.
`CCNC(=O)CC1C(=O)N(CC)C(=S)N1NC(=O)c1cccnc1` (centres undefined) had a kinetic solubility greater than 52.4 µg/mL.
`COc1ccccc1-n1ccnc1SCC(=O)NC1CCCC1` yielded a solubility (kinetic) of 45.3 µg/mL (≈ 137 µM).
In turn, `COc1ccc(OC)c(NC(=O)COC(=O)COc2ccc(Nc3ccccc3)cc2)c1` gave a solubility (kinetic) of 15.7 µg/mL (≈ 36 µM).
Compound `Cc1ccc(-c2noc(CCC(=O)NC3CC3)n2)cc1` came in with a solubility (kinetic) greater than 40.7 µg/mL.
The value for `O=c1[nH]c(=S)n(Cc2ccc(F)cc2)c(O)c1C=NCCCn1ccnc1` was greater than 58.1 µg/mL; that for `O=C(CCC1CCCC1)NCCCNC(=O)CCC1CCCC1` was 36.2 µg/mL (≈ 112 µM); that for `Cc1ccc(C)c(S(=O)(=O)Nc2cc(C)on2)c1` was greater than 39.9 µg/mL.
With `CCOC(=O)C1CCN(Cc2ccc(Cl)nc2)CC1` the figure was greater than 42.4 µg/mL; with `COc1ccc(NC(C)C(=O)Nc2cccc(S(=O)(=O)N3CCOCC3)c2)cc1OC` (centres undefined), greater than 67.4 µg/mL.
With `O=S(=O)(c1ccc2c(c1)CCCN2)N1CCCCC1` the figure was greater than 42.1 µg/mL.
`Cc1ccc(Oc2ncnc(N)c2[N+](=O)[O-])cc1`: the solubility (kinetic) is 12.3 µg/mL (≈ 50 µM).
With `CC(Sc1ncccn1)C(=O)N1CCc2ccccc21` (centres undefined) the figure was 33.3 µg/mL (≈ 117 µM).
The value for `CCCCOC(=O)c1ccc(NC(=O)C(=O)NCCN(C)C)cc1` was 45.7 µg/mL (≈ 136 µM); that for `CC(C)c1ccc(N)c(S(=O)(=O)O)c1` was greater than 32.3 µg/mL.
The value for `C=CCN(CC(=O)O)S(=O)(=O)c1ccccc1C(F)(F)F` was greater than 48.5 µg/mL; that for `COc1ccc(NC(=O)C2CCCCC2)cc1S(=O)(=O)N1CCOCC1` was 51.6 µg/mL (≈ 135 µM).
Regarding `Cc1ccc(-c2sc(-c3cccnc3)nc2CC(=O)O)cc1`, the solubility (kinetic) was greater than 46.6 µg/mL.
The value for `NC(=O)c1oc2ccccc2c1NC(=O)c1ccc([N+](=O)[O-])o1` was 1.8 µg/mL (≈ 5.71 µM).
The value for `CN1C(=O)c2ccc(C(=O)NCc3ccccn3)cc2C1=O` was greater than 44.3 µg/mL.
`O=C(Nc1ccc(OC(F)(F)F)cc1)Oc1ccccc1N1CCCCC1` registered a solubility (kinetic) of 9.7 µg/mL (≈ 25.5 µM).
Compound `CCOC(=O)Cn1ccc(-c2ccccc2)c(C#N)c1=O` displayed a kinetic solubility greater than 42.3 µg/mL.
With `Cc1ccnc(N2CCC(C(=O)NCc3ccc(F)cc3)CC2)n1` the figure was 16.7 µg/mL (≈ 50.9 µM).
As for `OC(COc1ccc(Br)cc1)Cn1ccnc1` (centres undefined), the solubility (kinetic) was 36.3 µg/mL (≈ 122 µM).
`CCCC(=O)C1=C(O)C(C(=O)OC)C(C)(C)CC1=NCCc1ccccc1` (centres undefined) yielded a solubility (kinetic) of 53.4 µg/mL (≈ 144 µM).
`CC1CCCCN1C(C(=O)O)c1ccccc1.Cl` (centres undefined) yielded a solubility (kinetic) greater than 40.5 µg/mL.
Consider `Cc1cccnc1NC(=O)CCCc1c[nH]c2ccccc12`, for which the kinetic solubility was 36.8 µg/mL (≈ 125 µM).
In turn, `COc1ccc(OC)c(NC(=O)CC2Oc3ccccc3NC2=O)c1` (centres undefined) came in with a solubility (kinetic) of 6.4 µg/mL (≈ 18.7 µM).
The value for `CC(=O)NN1C(=O)c2ccccc2NC1c1ccc([N+](=O)[O-])o1` (centres undefined) was greater than 47.4 µg/mL; that for `Cc1ccc(C(=O)Nc2ccc(S(=O)(=O)N3CCCC3)cc2)cc1` was 1.6 µg/mL (≈ 4.65 µM).
With `CNC(=S)Nc1ccc(C)c(NC(=S)NC)c1` the figure was greater than 40.3 µg/mL; with `COc1ccc(OC)c(C(O)C(C)N)c1.Cl` (centres undefined), greater than 37.2 µg/mL; with `Cc1cc(-c2ccc(S(=O)(=O)N3CCCCC3)s2)on1`, 2.6 µg/mL (≈ 8.32 µM).
`O=C(Nc1ncccn1)C1CCCCC1`: the solubility (kinetic) is greater than 30.8 µg/mL.
Compound `COc1ccc(NS(=O)(=O)c2ccc(C)cc2)c([N+](=O)[O-])c1` came in with a kinetic solubility of 44.1 µg/mL (≈ 137 µM).
Turning to `Cn1c(SCC(=O)Nc2ccc(Cl)cc2)nc(O)cc1=O`, the solubility (kinetic) was greater than 48.9 µg/mL.
The value for `O=C(Cc1nc2ccccc2[nH]1)c1ccc(Cl)cc1` was 24.2 µg/mL (≈ 89.4 µM); that for `O=C1CNC(=S)N1Cc1ccc(F)cc1` was greater than 33.6 µg/mL.
Regarding `COc1ccc(Cl)cc1NC(=O)CN(C)CC(=O)N(CC(C)C)c1c(N)n(CC(C)C)c(=O)[nH]c1=O`, the kinetic solubility stood at 77.9 µg/mL (≈ 149 µM).
Compound `Cc1ccc(OCC(=O)N2c3ccccc3CC2C)c([N+](=O)[O-])n1` (centres undefined) yielded a kinetic solubility of 21.3 µg/mL (≈ 65.1 µM).
With `Cc1ncc([N+](=O)[O-])n1Cc1ccccc1F` the figure was greater than 35.3 µg/mL.
With `O=c1c2ccccc2sn1-c1nccs1` the figure was 1.4 µg/mL (≈ 5.98 µM); with `Cl.OC(COCCC12CC3CC(CC(C3)C1)C2)CN1CCCC1` (centres undefined), 42.3 µg/mL.
As to `O=c1[nH]c2ccccc2[nH]c1=O`, the kinetic solubility is greater than 24.3 µg/mL.
`Cc1ccc2[nH]c(C(=O)N3CCCCC3)cc2c1`: the solubility (kinetic) is 7.6 µg/mL (≈ 31.4 µM).
The value for `Cc1ccc(Nc2cc(C)nc(-c3ccccc3)n2)cc1` was 5.2 µg/mL (≈ 18.9 µM).
Compound `O=C(COc1ccc(Br)cc1)N(CCO)CCO` gave a solubility (kinetic) of 34.5 µg/mL (≈ 108 µM).
The value for `CCC(Sc1nc(C)cc(C)n1)C(=O)Nc1nccs1` (centres undefined) was 43.1 µg/mL (≈ 140 µM); that for `CN(C/C=C/c1ccccc1[N+](=O)[O-])Cc1ccccc1` was 19.2 µg/mL (≈ 68 µM); that for `COCC(C)NC(=O)c1cc(OC)cc(OC)c1` (centres undefined) was greater than 38 µg/mL.
The value for `O=C(Cc1ccccc1)Nc1ncccc1Cl` was greater than 37 µg/mL; that for `Cc1ccc(OCCC(=O)OCC(=O)Nc2cc(C)cc(C)c2)cc1` was 4.3 µg/mL (≈ 12.6 µM).
The value for `C=C(C)CN(Cc1ccccc1)C(=S)Nc1ccccc1` was 1.9 µg/mL (≈ 6.41 µM); that for `COc1ccc(Cl)cc1NC(=O)Nc1cnccn1` was 0.4 µg/mL (≈ 1.44 µM).
For the compound `O=S(=O)(NCCc1ccccc1)c1cccs1`, the kinetic solubility came out at 34 µg/mL (≈ 127 µM).
On to `Cc1nc2ccc(Cl)cc2c(=O)n1-c1ccccc1Cl`, for which the solubility (kinetic) was found to be 10.4 µg/mL (≈ 34.1 µM).
For `CCCOC1CCCN(Cc2nc(-c3cnccn3)no2)C1` (centres undefined), the solubility (kinetic) is 41.3 µg/mL (≈ 136 µM).
`COc1cccc(C(=O)OCCNC(=O)c2cccnc2)c1.Cl` had a solubility (kinetic) of 43.3 µg/mL.
With `O=C(N/C(=C\c1ccc(Cl)cc1)C(=O)N1CCOCC1)c1ccco1`, the solubility (kinetic) was greater than 54.1 µg/mL.
With `O=C(COC(=O)CNC(=O)c1ccccc1Cl)NC1CCCC1` the figure was greater than 50.8 µg/mL.
Take `O=C(CCc1ccccc1)NCCc1cccs1`: the kinetic solubility is greater than 38.9 µg/mL.
The compound `CC(=O)c1ccc(N/C=C/C(=O)c2ccc(Br)cc2)cc1` showed a kinetic solubility of 0.8 µg/mL (≈ 2.32 µM).
With `COc1ccc(NC(=O)c2cccc3ccccc23)cc1` the figure was 1.4 µg/mL (≈ 5.05 µM).
The value for `COc1ccc(CNC(=S)Nc2ccc(F)c(Cl)c2)cc1OC` was 3.2 µg/mL (≈ 9.02 µM); that for `COc1cccc(C2N(Cc3ccccc3)C(=O)C2(F)F)c1OC` (centres undefined) was 15.2 µg/mL (≈ 45.6 µM); that for `O=c1c2[nH]c3ccc(F)cc3c2ncn1CC1CCCO1` (centres undefined) was 3.9 µg/mL (≈ 13.6 µM).
`CNC(=S)NCCCc1ccccc1` displayed a solubility (kinetic) greater than 31.2 µg/mL.
The value for `CC(=O)c1c(C)[nH]c(C(=O)Nc2cc(F)ccc2C)c1C` was 4.5 µg/mL (≈ 15.6 µM); that for `COc1ccc(NC(=O)/C(C#N)=C/c2ccc(-c3ccccc3C(=O)O)o2)cc1` was greater than 58.3 µg/mL.
The value for `COC(CNc1ccc([N+](=O)[O-])c(NCC(OC)OC)c1C#N)OC` was 19 µg/mL (≈ 53.6 µM).
The value for `Cc1ccccc1C(=O)O/N=C(\N)c1ccc([N+](=O)[O-])cc1` was 6 µg/mL (≈ 20 µM); that for `N#Cc1ccc(C(=O)NCCCSc2ccccc2)cc1` was 6.4 µg/mL (≈ 21.6 µM).
